Source: patent EP2451450B1, “Inhibitors of proline racemase enzymes for the treatment of Trypanosoma spp infections” (Institut Pasteur, priority 2009, dated 2011)

Columns and labels:
TcPRAC = molecular target: T1, TcPRAC (Trypanosoma cruzi, UniProt Q4DA80); experiment: L-proline racemization assay by polarimetry; type: biochemical; details: for potency relative to PYC in terms of TcPRAC inhibition: based on the DAAOx test and polarimetry; for Racemization Inhibition: L-Proline 20 mM, 30 minutes 37°C, 0.25 µM TcPRAC
T1 construct: implied only by nickel IMAC purification; made in house; host or cells: E. coli BL21 (DE3)
T1 sequence (Q4DA80 32-423): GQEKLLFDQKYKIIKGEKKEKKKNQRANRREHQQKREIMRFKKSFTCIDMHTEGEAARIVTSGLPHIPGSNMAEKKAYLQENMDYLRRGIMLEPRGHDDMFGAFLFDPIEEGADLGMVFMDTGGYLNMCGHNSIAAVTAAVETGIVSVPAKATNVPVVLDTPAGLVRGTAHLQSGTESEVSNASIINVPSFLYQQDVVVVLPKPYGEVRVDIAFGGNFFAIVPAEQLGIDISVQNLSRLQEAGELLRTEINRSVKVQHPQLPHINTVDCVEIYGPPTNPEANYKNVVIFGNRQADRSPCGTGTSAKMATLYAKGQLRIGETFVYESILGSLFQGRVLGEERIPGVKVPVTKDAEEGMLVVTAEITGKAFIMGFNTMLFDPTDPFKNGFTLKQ
Method: Briefly, classical assays of Proline racemization induced by TcPRAC were performed in tubes in a final volume of 1.5 ml and optical rotations measured in a polarimeter 241MC (Perkin Elmer). Parallel assays of Proline racemization were transposed into microplates in a final volume of 100 µl, as follows: serial dilutions of L- Proline ranging from 40 mM to 2.5 mM were prepared in 0.2 M sodium acetate pH 6.0 containing 0.25 mM rTcPRAC and loaded into microplate wells in the presence or in the absence of 0 - 20 µM pyrrole-2 carboxylic acid (PYC) or of similar dilutions of unknown potential inhibitors. Specific control wells were included omitting the TcPRAC and/or the PYC.
The values presented in Table 2B correspond to racemization reactions performed in the absence or in the presence of the different inhibitors. Note that 6 µM PYC is necessary to inhibit 100 % of the racemization of 10-20 mM L-proline. Briefly, L-Proline (20 mM) were incubated for 30 minutes at 37°C in test tubes with or without 0.25 µM TcPRAC in 0.2 M sodium acetate pH 6. Reactions were stopped by heating at 65° C for 10 minutes. Reaction volumes were analyzed for D-Proline formation, by measuring optical rotations in a polarimeter (365nm).

[1] = tested on: T.cruzi CL Brener (clone F11-F5); experiment: Vero cell infection by trypomastigotes in the presence of inhibitor (17h), Giemsa scoring; type: cell-based; design: key to Endocytic index / Endocytic index (EI): EI = % infected cells × mean parasites per infected cell; details: for Mean number of parasites/ cell: 1,5 at 0; for % Infected cells: 38,6 at 0; for Endocytic index: 57 at 0
Method: Vero cells (from green monkey kidney) were seeded at a density of 15x10^6 cells per 25cm^2 culture flasks or at 5 x10^4 cells/well into LabTek slides. The cultures were maintained in RPMI 1640 medium supplemented with 5% fetal bovine serum and kept at 37°C in an atmosphere of 5% CO2. Cell culture-derived trypomastigotes from T.cruzi CL Brener (clone F11-F5) were isolated from the supernatant of Vero cells, which had been previously infected with bloodstream trypomastigotes. Vero cell cultures were infected for 17h at 37°C with cultured trypomastigotes at a 10:1 parasite/cell ratio in the presence or in the absence of increasing doses of freshly made dilutions (3-30 µM) of (E)-4-oxopent-2-enoic acid (OxoPA) and its derivative (E)-5-bromo-4-oxopent-2-enoic acid (Br-OxoPA), previously dissolved in dimethyl sulfoxide (DMSO). For comparison, cultures were seeded with or without 10-1000 µM specific proline racemase inhibitor pyrrole-2-carboxylic acid (PYC) also diluted in DMSO. To verify if proline racemase inhibitors could also exert an effect on the parasite intracellular cycle after 17 hours of parasite-host cell interaction, all the wells were then rinsed three times to eliminate all extracellular parasites and new medium was added to the cultures that were incubated for up to 48 hours with fresh dilutions of the inhibitor compounds. After the different treatments, cultures were washed with PBS, fixed and stained with Giemsa. The numbers of infected host cells and of parasites per infected cell were then scored in at least 400 host cells in independent experiments, run in duplicate. Results are expressed as the percentage of infected cells, the mean number of parasites per infected cell or by the endocytic index (EI) which represents the percentage of infected cells multiplied by the mean number of parasites per infected cell.
Vero cells (from green monkey kidney) were seeded at a density of 15x10^6 cells per 25cm^2 culture flasks or at 5 x10^4 cells/well into LabTek slides. The cultures were maintained in RPMI 1640 medium supplemented with 5% fetal bovine serum and kept at 37°C in an atmosphere of 5% CO2. Cell culture-derived trypomastigotes from T.cruzi CL Brener (clone F11-F5) were isolated from the supernatant of Vero cells, which had been previously infected with bloodstream trypomastigotes. LabTek wells were infected for 17h at 37°C with cultured trypomastigotes at a 10:1 parasite/cell ratio in the presence or in the absence of increasing doses of a freshly made dilutions of 3-30 µM of OxoPA or Br-OxoPA molecules. Cultures were washed, fixed and stained with Giemsa. *At this stage, for comparison, results obtained from cultures seeded with or without 10-1000 µM specific proline racemase inhibitor pyrrole-2-carboxylic acid (PYC) are shown and were obtained from our previous work. Endocytic index was calculated as the % of infected cells X the mean number of intracellular parasites per infected cell. Nd = Not done

T. cruzi = experiment: Capture ELISA of Vero cultures infected 17h with or without inhibitor; type: cell-based, Trypanosoma cruzi; details: 17h at 37°C, 10:1 parasite/cell ratio; 0-30 mM OxoPA, Br-OxoPA or 10-1000 µM PYC in DMSO; Fig. 9
Method: Flat-bottomed microtiter plates (Nunc, Denmark) were coated overnight at 4°C with rabbit anti-T. cruzi polyclonal antibodies and further blocked for 4 h at room temperature (RT) with 1% BSA, 0.05% Tween 20 in PBS. After washings, lysate samples from infected or control Vero cultures, or from T. cruzi, were then added and incubated at 4°C for 18h. Plates were washed with PBS-Tween and incubated for 2h at RT with polyclonal mouse anti-T. cruzi chronic serum, washed again and incubated for 1 h at RT with HRP-secondary antibodies. […] Optical densities were determined in a spectrophotometer at 450 nm and 650 nm and analyzed using Softmax Pro software.
To confirm the effect of the inhibitors in the initial steps of the host-parasite interaction, cultures were infected for 17h at 37°C at a 10:1 parasite/cell ratio with or without increasing doses of freshly prepared dilutions (0-30 mM) of OxoPA, Br-OxoPA (15), or (10-1000 µM) of PYC, previously dissolved in DMSO and further analyzed by capture ELISA (see methods and Fig. 9). […] Three ongoing studies were performed to determine whether TcPRAC inhibition by the new compounds affects parasite intracellular fate. To do this, host cells were infected for 17 hours then washed and different ligand concentrations (5 mM, 10 mM, 30, 100 mM) were added to the medium. The degree of infection was determined over 48 hours by capture ELISA. The number of parasites per well decreased in a dose-dependent manner (Fig. 7). These experiments indicate that TcPRAC inhibition by OxoPA and Br-OxoPA affects both cellular infection by T. cruzi and parasite development in tissues.

[2] = tested on: T.cruzi CL Brener (clone F11-F5); experiment: Vero cell infection by trypomastigotes in the presence of inhibitor (17h), Giemsa scoring; type: cell-based; design: key: EI = % infected cells × mean parasites per infected cell; details: Table 5
[3] = Inhibitor concentration (µM) 30, Table 5

O=C(O)/C=C/C(=O)CBr [Br-OxoPA, (E)-5-bromo-4-oxopent-2-enoic acid]
potency relative to PYC in terms of TcPRAC inhibition (TcPRAC): 4 fold
Racemization Inhibition (TcPRAC; ligand 2.5 µM): 50.0%
Racemization Inhibition (TcPRAC; ligand 10.0 µM): 81.3%
Mean number of parasites/ cell ([1]; 3 µM): 2,0
% Infected cells ([1]; 3 µM): 37,7%
Endocytic index ([1]; 3 µM): 77,7
Mean number of parasites/ cell ([1]; 10 µM): 1,8
% Infected cells ([1]; 10 µM): 23,5%
Endocytic index ([1]; 10 µM): 42,3
Mean number of parasites/ cell ([1]; 30 µM): 1,6
% Infected cells ([1]; 30 µM): 13,5%
Endocytic index ([1]; 30 µM): 28,7
Endocytic index (EI) ([1]; Inhibitor concentration (µM) 10, Table 5): 42
Endocytic index (EI) [1, 3]: 29
lower doses necessary to obtain the same endocytic index (EI) as with PYC ([1]; Table 5): 30 fold
lower doses necessary to obtain the same endocytic index (EI) as with PYC ([1]; versus 1000 µM PYC): 30 times
inhibition of cellular infection (T. cruzi): a clear dose dependent inhibition of cellular infection
Endocytic index (EI) ([2]; Inhibitor concentration (µM) 3): 78

CC(=O)/C=C/C(=O)O [OxoPA, (E)-4-oxopent-2-enoic acid]
potency relative to PYC in terms of TcPRAC inhibition (TcPRAC): 2 fold
Racemization Inhibition (TcPRAC; ligand 3.0 µM): 50.0%
Mean number of parasites/ cell ([1]; 3 µM): 1,6
% Infected cells ([1]; 3 µM): 26,8%
Endocytic index ([1]; 3 µM): 41,8
Mean number of parasites/ cell ([1]; 10 µM): 1,4
% Infected cells ([1]; 10 µM): 16,6%
Endocytic index ([1]; 10 µM): 22,96
Mean number of parasites/ cell ([1]; 30 µM): 1,5
% Infected cells ([1]; 30 µM): 13,9%
Endocytic index ([1]; 30 µM): 21,5
Endocytic index (EI) [1, 3]: 21
lower doses necessary to obtain the same endocytic index (EI) as with PYC ([1]; Table 5): 100 fold
lower doses necessary to obtain the same endocytic index (EI) as with PYC ([1]; versus 1000 µM PYC): 100 times
inhibition of cellular infection (T. cruzi): a clear dose dependent inhibition of cellular infection
Endocytic index (EI) ([2]; Inhibitor concentration (µM) 3): 42
Endocytic index (EI) ([2]; Inhibitor concentration (µM) 10): 23
